Assay [1] addresses T1, GlyT1 (Homo sapiens, UniProt P48067).
T1 construct: Human placental choriocarcinoma cells endogenously expressing GlyT1; host or cells: JAR human placental choriocarcinoma cells
T1 sequence (P48067 1-706): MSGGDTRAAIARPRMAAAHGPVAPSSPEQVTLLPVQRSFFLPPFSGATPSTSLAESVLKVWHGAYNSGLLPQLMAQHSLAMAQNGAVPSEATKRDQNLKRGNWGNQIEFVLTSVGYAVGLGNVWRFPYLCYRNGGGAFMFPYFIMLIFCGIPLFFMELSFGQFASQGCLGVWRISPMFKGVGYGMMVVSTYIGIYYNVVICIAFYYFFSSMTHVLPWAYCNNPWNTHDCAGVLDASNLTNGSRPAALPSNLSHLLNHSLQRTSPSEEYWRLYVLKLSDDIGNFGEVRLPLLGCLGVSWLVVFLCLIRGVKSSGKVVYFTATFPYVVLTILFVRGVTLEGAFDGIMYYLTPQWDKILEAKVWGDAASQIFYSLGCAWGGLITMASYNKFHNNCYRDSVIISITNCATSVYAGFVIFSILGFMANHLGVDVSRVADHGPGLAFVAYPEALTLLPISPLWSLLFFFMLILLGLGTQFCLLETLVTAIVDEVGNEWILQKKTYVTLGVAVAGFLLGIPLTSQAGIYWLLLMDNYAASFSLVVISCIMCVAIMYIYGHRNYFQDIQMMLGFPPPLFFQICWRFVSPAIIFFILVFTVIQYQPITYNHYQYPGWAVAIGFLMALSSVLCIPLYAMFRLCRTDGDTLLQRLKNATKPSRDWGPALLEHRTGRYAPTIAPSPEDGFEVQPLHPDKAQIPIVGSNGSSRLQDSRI
Kind of assay: [14C]-glycine uptake in JAR cells endogenously expressing GlyT1 (scintillation proximity assay). It is filed as cell-based. To be noted: 10 μM [14C]-glycine, 3 h, read-out: Potency. An excerpt: The procedure used was analogous to that disclosed in Williams, J. B.; Mallorga P. J.; Lemaire W.; Williams D. L.; Na S.; Patel S.; Conn J. P.; Pettibone D. J.; Austin C.; Sur C.; “Development of a scintillation proximity assay for analysis of Na+/Cl−-dependent neurotransmitter transporter activity,” ANAL. BIOCHEM. 2003 Oct. 1; 321(1):31-7.
Human placental choriocarcinoma cells (JAR cells, ATCC No. HTB-144) were obtained from the American Type Culture Collection (Manassas, Va.). JAR cells were cultured in 96-well Cytostar T plates (GE Healthcare No. RPNQ0162) in RPMI 1640 medium (Sigma-Aldrich) containing 10% fetal bovine serum, 10 mM HEPES, 1 mM sodium pyruvate, penicillin (100 μg/ml), and streptomycin (100 μg/ml). Cells were plated at a density of 1.3×10^4 cells/well and grown at 37° C. in a humidified atmosphere of 5% CO2 for 40-48 h. Culture medium was removed from the Cytostar T plate and JAR cells were incubated with 30 μl of TB1A buffer (120 mM NaCl, 2 mM KCl, 1 mM CaCl2, 1 mM MgCl2, 10 mM Hepes, 5 mM L-alanine, pH 7.5 adjusted with 1 M Tris base) with or without multiple concentrations of test compound (added at 2× final concentration) for 1 min. Then 30 μl of [^14C]-glycine (Perkin-Elmer) diluted in TB1A was added to each well to give a final concentration of 10 μM. Cytostar T plates were then incubated in the dark at room temperature for 3 h, sealed with opaque white bottom plate seals (Perkin-Elmer) and clear top plate seals (Topseal A, Perkin-Elmer), and were counted on a Top Count (Packard). Glycine uptake was determined by measuring radioactivity in each well and plotted as a function of concentration of test compound. […] Nonspecific uptake of [^14C]-glycine was determined in the presence of 10 mM cold glycine. [^14C]-taurine (American Radiolabeled Chemicals, Inc.) uptake experiments were performed according to the same protocol except that 10 mM cold taurine was used to determine nonspecific uptake. For GlyT2 assays, COS-7 (ATCC No. CRL-1651) cells were utilized. COS-7 cells were transiently transfected with the human GlyT2 cDNA (Origene Technologies Inc., SC303452) using Fugene 6 (Roche) according to the manufacturer's instructions in Dulbecco's modified Eagle's medium (DMEM, Invitrogen) containing 10% Fetal Bovine Serum, 10 mM HEPES, 1 mM sodium pyruvate, penicillin (100 μg/ml), and streptomycin (100 μg/ml). The following day, the cells were plated at a density of 5×10^5 cells/well in Cytostar T plates and maintained at 37° C. in a humidified atmosphere of 5% CO2 for 24 h. GlyT2 glycine uptake experiments were performed according to the same protocol previously described.
For orientation: In a scintillation proximity assay essentially only radioactivity close to the scintillant gives light.

The subject of assay [2] is GlyT1. The note with it: cited from earlier work.
In assay [3] the target is T1, GlyT1. As to the kind of experiment: Saturation [14C]-glycine uptake in JAR cells to determine mode of inhibition. It is filed as cell-based. To be noted: for Mode of inhibition of GlyT1 glycine transport: with respect to glycine, Eadie-Hofstee analysis. On the procedure:
To determine the mode of inhibition of GlyT1 inhibitors, a previously published assay for saturation glycine uptake was utilized. Briefly, human placental choriocarcinoma (JAR) cells (ATCC Catalog #HTB-144) were obtained from the American Type Culture Collection (Manassas, Va.). JAR cells were plated at a density of 12,000 cells/well in Cytostar-T 96 well plates (Amersham) in RPMI 1640 Media (Sigma, Catalog #R8758) containing 10 mM HEPES, 1 mM Sodium Pyruvate, 10% fetal bovine serum, 1× Antibiotic/Antimycotic (Invitrogen, Catalog #15240-062), and 4.5 g/L glucose 48 hours prior to the assay. Cell cultures were maintained at 37° C. in an atmosphere of 95% air, 5% CO2. On the day of the assay, culture media was removed, and 30 μL of T1BA buffer (120 mM NaCl, 2 mM KCl, 1 mM CaCl2, 1 mM MgCl2, 10 mM HEPES, 5 mM L-alanine, pH 7.5 using 1M tris base) with or without 2× drug was added to the JAR cells. Plates were incubated for 5 minutes at room temperature, followed by the addition of 30 μL of 2×[^14C]-glycine (111.7 mCi/mmol, obtained from Perkin-Elmer) made up in T1BA Buffer to give final concentrations as indicated. Aliquots of each concentration of [^14C]-glycine were saved in triplicate for direct determination of their concentration via liquid scintillation counting for each assay. Plates were incubated in the dark at room temperature for 3-4 hours and sealed 96-well Cytostar T plates were counted on a Top Count (Perkin-Elmer) with a 1 minute count time per well. Nonspecific uptake was determined in the presence of 10 mM cold glycine. Fixed concentrations of representative compounds and known competitive (ACPPB) and non-competitive inhibitors (NFPS) were included in each assay as comparators.
Data were analyzed by non-linear regression analysis using GraphPad Prism 4.0 (GraphPad, La Jolla, Calif.). Uptake curves were fit to a Michaelis-Menton type equation: V=(Vmax*[S])/(Km+[…]), where V=Velocity in counts per minute (CPM), Vmax=Maximum Velocity in CPM, [S]=Substrate Concentration, and Km is the concentration of substrate to elicit 50% of the Maximal Velocity. Data were additionally plotted as Eadie-Hofstee plots of V versus V/[S] to better visualize the mode of inhibition. […] As an example of the disclosed series of compounds, 9UD was tested side-by-side with known competitive (ACPPB) and non-competitive (NFPS) inhibitors of glycine transport.

Molecules are shown by their SMILES. Some results are limits rather than exact numbers.

With `CCCS(=O)(=O)N1CCC2(CC1)c1ccccc1CC2NC(=O)c1ccc(Cl)cc1Cl` (single isomer, unassigned) [Compound 7c], the IC50 at GlyT1 [1] is 1300 nM.

As for `CN(CC[C@@H](Oc1ccc(-c2ccccc2)cc1)c1ccc(F)cc1)CC(=O)O` [(R)-NFPS], the “Duration of increased glycine levels in the prefrontal cortex” value in the assay on GlyT1 [2] was more than 24 h.

In the case of `CCCS(=O)(=O)N1CCC(c2ccccc2)([C@H](C)NC(=O)c2ccc(Cl)cc2N)CC1` [ACPPB], at GlyT1 [3] (in the presence of 5 nM ACPPB, control Vmax=20508 CPM), the “Vmax of [14C]-glycine transport” value was determined as 21592 CPM. Besides, on GlyT1 [3], the “Mode of inhibition of GlyT1 glycine transport” value is reported as “competitive inhibition”.

Consider `CS(=O)(=O)N1CCC2(CC1)c1ccccc1CC2NC(=O)c1ccc(Cl)cc1Cl` (centres unmarked) [Compound 2a], for which the IC50 at GlyT1 [1] is more than 10000 nM.

Turning to `CCS(=O)(=O)N1CCC2(CC1)c1ccccc1CC2NC(=O)c1ccc(Cl)cc1Cl` (centres unmarked) [Compound 2b], the IC50 on GlyT1 [1] was more than 10000 nM.

As to `CCCS(=O)(=O)N1CCC2(CC1)c1ccccc1CC2NC(=O)c1ccc(Cl)cc1Cl` (centres unmarked) [Compound 2c], on GlyT1 [1], the IC50 amounted to 450 nM.

Turning to `CC(C)S(=O)(=O)N1CCC2(CC1)c1ccccc1CC2NC(=O)c1ccc(Cl)cc1Cl` (centres unmarked) [Compound 2e], the IC50 at GlyT1 [1] is more than 10000 nM.

In the case of `CCCCS(=O)(=O)N1CCC2(CC1)c1ccccc1CC2NC(=O)c1ccc(Cl)cc1Cl` (centres unmarked) [Compound 2f], the IC50 at GlyT1 [1] was more than 10000 nM.

With `O=C(NC1Cc2ccccc2C12CCN(S(=O)(=O)c1cccs1)CC2)c1ccc(Cl)cc1Cl` (centres unmarked) [Compound 2i], on GlyT1 [1], the IC50 was more than 10000 nM.

Take `Cn1cnc(S(=O)(=O)N2CCC3(CC2)c2ccccc2CC3NC(=O)c2ccccc2Cl)c1` (centres unmarked) [Compound 4a]: the IC50 at GlyT1 [1] was 18 nM.

Turning to `Cn1cnc(S(=O)(=O)N2CCC3(CC2)c2ccccc2CC3NC(=O)c2ccc(Cl)cc2)c1` (centres unmarked) [Compound 4b], the IC50 on GlyT1 [1] was 15 nM.

Regarding `Cn1cnc(S(=O)(=O)N2CCC3(CC2)c2ccccc2CC3NC(=O)c2ccc(F)cc2F)c1` (centres unmarked) [Compound 4c], the IC50 at GlyT1 [1] was 18 nM.

For `Cn1cnc(S(=O)(=O)N2CCC3(CC2)c2ccccc2CC3NC(=O)c2c(F)cccc2F)c1` (centres unmarked) [Compound 4d], the IC50 at GlyT1 [1] amounted to 10 nM.

In the case of `Cn1cnc(S(=O)(=O)N2CCC3(CC2)c2ccccc2CC3NC(=O)c2ccc(Cl)c(Cl)c2)c1` (centres unmarked) [Compound 4e], the IC50 at GlyT1 [1] turned out to be 53 nM.

As for `Cn1cnc(S(=O)(=O)N2CCC3(CC2)c2ccccc2CC3NC(=O)c2ccccc2C(F)(F)F)c1` (centres unmarked) [Compound 4f], on GlyT1 [1], the IC50 came out at 24 nM.

Take `Cn1cnc(S(=O)(=O)N2CCC3(CC2)c2ccccc2CC3NC(=O)c2cccc(C(F)(F)F)c2)c1` (centres unmarked) [Compound 4g]: the IC50 on GlyT1 [1] is 310 nM.

Regarding `CCCS(=O)(=O)N1CCC2(CC1)c1ccccc1CC2NC(=O)c1ccc(Cl)cc1` (centres unmarked) [Compound 5a], the IC50 on GlyT1 [1] worked out at 1000 nM.

As to `CCCS(=O)(=O)N1CCC2(CC1)c1ccccc1CC2NC(=O)c1c(F)cccc1F` (centres unmarked) [Compound 5b], the IC50 at GlyT1 [1] turned out to be 1160 nM.

For `CCCS(=O)(=O)N1CCC2(CC1)c1ccccc1CC2NC(=O)c1ccc(Cl)c(Cl)c1` (centres unmarked) [Compound 5c], on GlyT1 [1], the IC50 was 609 nM.

On to `CCCS(=O)(=O)N1CCC2(CC1)c1ccccc1CC2NC(=O)c1ccccc1C(F)(F)F` (centres unmarked) [Compound 5d], for which the IC50 on GlyT1 [1] is 674 nM.

`CCCS(=O)(=O)N1CCC2(CC1)c1ccccc1CC2NC(=O)c1cccc(C(F)(F)F)c1` (centres unmarked) [Compound 5e]: the IC50 on GlyT1 [1] is 1600 nM.

For `CCCS(=O)(=O)N1CCC2(CC1)c1ccccc1CC2NC(=O)c1ccc(C(F)(F)F)cc1` (centres unmarked) [Compound 5f], the IC50 at GlyT1 [1] worked out at 270 nM.

For `CCCS(=O)(=O)N1CCC2(CC1)c1ccccc1CC2NC(=O)c1ccccc1OC` (centres unmarked) [Compound 5g], the IC50 at GlyT1 [1] was 2700 nM.

As for `CCCS(=O)(=O)N1CCC2(CC1)c1ccccc1CC2NC(=O)c1ccccc1I` (centres unmarked) [Compound 5h], the IC50 on GlyT1 [1] came out at 266 nM.

On to `Cn1cnc(S(=O)(=O)N2CCC3(CC2)c2ccccc2CC3NC(=O)c2ccc(Cl)cc2Cl)c1` (centres unmarked) [Compound 7a], for which the IC50 on GlyT1 [1] was determined as 3500 nM.

With `CCCS(=O)(=O)N1CCC2(CC1)c1ccccc1CC2NC(=O)c1ccc(Cl)cc1Cl` (centres unmarked) [Compound 7d], at GlyT1 [1], the IC50 was found to be 52 nM.

In the case of `CCCCS(=O)(=O)N1CCC2(CC1)c1ccccc1CC2NC(=O)c1ccc(Cl)cc1Cl` (centres unmarked) [Compound 9UD], the “Vmax of [14C]-glycine transport” value at GlyT1 [3] (in the presence of 400 nM 9UD, control Vmax=20495 CPM) was 20699 CPM. For the same compound, the “Mode of inhibition of GlyT1 glycine transport” value on GlyT1 [3] is on record as “competitive inhibition”.

One may read the Km as the substrate concentration at which the rate is half of its maximum. For the compound `CN(CCC(Oc1ccc(-c2ccccc2)cc1)c1ccc(F)cc1)CC(=O)O` (centres unmarked) [NFPS, (N-[3-(4′-fluorophenyl)-3-(4′-phenylphenoxy)propyl])sarcosine], the Km at GlyT1 [3] (in the presence of 1 nM NFPS, control Km=28.97 μM, read-out: Km of [14C]-glycine transport) is 30.7 µM. In addition, the “Vmax of [14C]-glycine transport” value at GlyT1 [3] (in the presence of 1 nM NFPS, control Vmax=16056 CPM) is on record as 9298 CPM. The “Mode of inhibition of GlyT1 glycine transport” value at GlyT1 [3] is recorded as “non-competitive inhibition”.

The values are drawn from US8431700B2, “Alkylsulfonyl-2,3-dihydrospiro[indene-1,4′-piperidine] analogs as GlyT1 inhibitors, methods for making same, and use of same in treating psychiatric disorders” (Vanderbilt University, priority 2009, dated 2013).
